Source: patent EP1641803B1, “THIENOPYRIMIDINE DERIVATIVES AS POTASSIUM CHANNEL INHIBITORS” (Xention Limited, priority 2003, dated 2004)

Each molecule was assayed against hKv1.5 (Homo sapiens, UniProt P22460) (assay: Kv1.5 Autopatch Electrophysiology (whole cell patch-clamp)). Conditions: compound at 1µM, room temperature (22-24°C), held at -80mV, step to 0mV for 1000ms, total charge measured.
Format: cell-based
Procedure: The external bathing solution contained (in mM): 150 NaCl, 10 KCl, […], 3 MgCl2, 1 CaCl2, 10 HEPES, pH 7.4. Patch pipettes were filled with an electrode solution of composition (in mM): 160 KCl, 0.5 MgCl2, 10 HEPES, 1 EGTA, pH 7.4 with KOH.
Compounds were dissolved in DMSO (100 %) and made up in the external bather at a concentration of 1µM. All experiments were conducted at room temperature (22-24°C).
A cell suspension (10 ml), with a density of 100,000 cells/ml, was aliquoted into a 15ml centrifuge tube and transferred to an incubator (37°C, 5% CO2) for approximately one hour before use. Following 60 min incubation, a tube was taken and centrifuged at 1000 rpm for 4 mins at room temperature. 9.5 ml supernatant was thence discarded, leaving a cell pellet at the bottom of the tube. The pellet was then resuspended using 100 µl of cold (4 °C), filtered (0.22 µm), 0.2 % BSA/bather solution (0.02g BSA/10ml bather). The bottom of the tube was manually agitated gently until the solution became cloudy with cells. The 100 µl cell resuspension solution was then stored on the bench at 4 °C (using a Peltier-based temperature control device) until used.
A length of capillary glass (1B150F-4, WPI) was dipped into the cell suspension solution, such that - 3 cm column of fluid was taken up by capillary action. A Ag/AgCl wire was dropped into the non-dipped end of the capillary also. The outside of the solution-filled end of the capillary was then dried and the capillary was loaded into the AutoPatch™. Borosilicate glass patch pipettes (from 1.5mm OD, thin-walled filamented, GC150-TF capillary glass, Harvard) were pulled using a DMZ pipette puller (Zeitz Instruments), and were back-filled using the internal pipette solution, being careful that no bubbles remain at the tip or in the body of the pipette. Patch pipettes typically had resistances of 2.3-3.5 MΩ. Once filled, the pipette tip and a proportion of the shaft (- 15 mm) were dipped into Sigmacote (Sigma). The recording pipette was then loaded into the AutoPatch™.
Automated patch-clamping was initiated by the operator, but thereafter AutoPatch.exe continued the experiment providing that pre-set conditions and criteria were satisfied.
Whole cell patch-clamp recordings were made using the AutoPatch™ rig, which incorporated an EPC9 amplifier (HEKA, Germany) under control of Pulse software (v8.54, HEKA, Germany), a motion controller with 2 translators (Newport, UK), valve controller (VF1) and a c-level suction device all at room temperature (22-24°C). This equipment was completely under the control of AutoPatch.exe and operator intervention was only made when there was a requirement to refill the drug reservoirs or to prevent the loss of a cell due to a technical error. Cells with an Rseries greater than 18 MΩ were discounted from the experiment.
Qualification stages prior to perfusion and drug application ensured that the observed current met the criteria for the experiment. Only those cells with an IK > 500 pA were used for experiments. Cells were continuously perfused with external solution at a flow rate of 1.8-2 ml/minute. […] Online analysis of the hKv1.5 current during the application of compounds was performed by the AutoPatch™ software. Voltage-step protocols and analysis of data was performed as described for conventional electrophysiology.
Electrophysiology voltage-step protocols and analysis of data was performed as follows. Data was sampled at 5kHz, and filtered with a -3 dB bandwidth of 2.5kHz. Cells were held at a voltage of -80mV. Currents were evoked to a voltage step for 1000ms in duration at 0mV every 5s. Currents were analysed using Pulsefit software (v8.54, HEKA, Germany), with the total charge measured during the whole of the voltage step. All other plots were produced using Igor Pro (WaveMetrics).

hKv1.5, sequence (P22460 whole entry): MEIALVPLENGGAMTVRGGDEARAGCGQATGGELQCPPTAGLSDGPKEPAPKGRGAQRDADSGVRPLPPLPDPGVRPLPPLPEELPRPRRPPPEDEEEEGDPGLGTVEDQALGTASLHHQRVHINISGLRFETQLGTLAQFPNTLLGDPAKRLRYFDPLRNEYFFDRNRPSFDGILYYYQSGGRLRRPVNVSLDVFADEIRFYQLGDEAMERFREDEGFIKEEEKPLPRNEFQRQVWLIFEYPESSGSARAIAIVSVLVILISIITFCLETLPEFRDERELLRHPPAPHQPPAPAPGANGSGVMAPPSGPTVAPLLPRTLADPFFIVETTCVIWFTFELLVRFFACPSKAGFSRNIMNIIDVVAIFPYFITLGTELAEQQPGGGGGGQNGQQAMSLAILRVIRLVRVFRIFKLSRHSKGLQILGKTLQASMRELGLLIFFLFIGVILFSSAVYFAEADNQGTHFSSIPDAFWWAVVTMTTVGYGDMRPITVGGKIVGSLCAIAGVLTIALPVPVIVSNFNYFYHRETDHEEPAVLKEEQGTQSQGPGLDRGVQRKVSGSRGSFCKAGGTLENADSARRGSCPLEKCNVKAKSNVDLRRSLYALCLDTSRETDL

Row | Compound | inhibition at 1 µM [%] | % Inhibition at 1µM [%]
1 | COc1ccc(-c2csc3ncnc(NCc4ccccn4)c23)cc1 [Example 138, [5-(4-Methoxy-phenyl)-thieno[2,3-d]pyrimidin-4-yl]-pyridin-2-ylmethyl-amine] | 92.6 | 
2 | CC(Nc1ncnc2scc(-c3ccccc3)c12)c1ccccn1 (centres unmarked) [Example 149, (5-Phenyl-thieno[2,3-d]pyrimidin-4-yl)-(1-pyridin-2-yl-ethyl)-amine] | 78 | 
3 | Cc1cccnc1CNc1ncnc2scc(-c3ccccc3)c12 [Example 156, (3-methyl-pyridin-2-ylmethyl)-(5-phenyl-thieno[2,3-d]pyrimidin-4-yl)-amine] | 92 | 
4 | CCOC(=O)c1cccnc1CNc1ncnc2scc(-c3ccccc3)c12 [Example 160, 2-[(5-Phenyl-thieno[2,3-d]pyrimidin-4-ylamino)-methyl]-nicotinic acid ethyl ester] | 80 | 
5 | Cc1cccc(CNc2ncnc3sc(C)c(-c4ccccc4)c23)n1 [Example 166, 6-methyl-N-[(6-methylpyridin-2-yl)methyl]-5-phenylthieno[2,3-d]pyrimidin-4-amine] | 97 | 
6 | Cc1cccc(CNc2ncnc3sc(Br)c(-c4ccccc4)c23)n1 [Example 167, 6-bromo-N-[(6-methylpyridin-2-yl)methyl]-5-phenylthieno[2,3-d]pyrimidin-4-amine] | 99 | 
7 | COCCNc1nc(NCc2ccccn2)c2c(-c3ccccc3)csc2n1 [Example 189, N^2-(2-Methoxyethyl)-5-phenyl-N^4-(pyridin-2-ylmethyl)thieno[2,3-d]pyrimidine-2,4-diamine] | 97.4 | 
8 | Nc1nc(NCc2ccccn2)c2c(-c3ccccc3)csc2n1 [Example 192, 5-Phenyl-N-4-pyridin-2-ylmethyl-thieno[2,3-d]pyrimidine-2,4-diamine] | 90 | 
9 | CN(C)c1nc(NCc2ccccn2)c2c(-c3ccccc3)csc2n1 [Example 198, N^2,N^2-Dimethyl-5-phenyl-N^4-pyridin-2-ylmethyl-thieno[2,3-d]pyrimidine-2,4-diamine] | 98.1 | 
10 | OCC(O)CNc1nc(NCc2ccccn2)c2c(-c3ccccc3)csc2n1 (centres unmarked) [Example 214, 3-{5-Phenyl-4-[(pyridin-2-ylmethyl)-amino]-thieno[2,3-d]pyrimidin-2-ylamino}-propane-1,2-diol] | 87 | 
11 | CN1CCN(c2nc(NCc3ccccn3)c3c(-c4ccccc4)csc3n2)CC1 [Example 215, [2-(4-Methyl-piperazin-1-yl)-5-phenyl-thieno[2,3-d]pyrimidin-4-yl]-pyridin-2-ylmethyl-amine] | 82 | 
12 | CNC(=O)Cc1nc(NCc2ccccn2)c2c(-c3ccccc3)csc2n1 [Example 287, N-Methyl-2-{5-phenyl-4-[{pyridin-2-ylmethyl)amino]thieno[2,3-d]pyrimidin-2-yl}acetamide] | 91 | 
13 | CN(C)Cc1nc(NCc2ccccn2)c2c(-c3ccccc3)csc2n1 [Example 302, (2-Dimethylaminomethyl-5-phenylthieno[2,3-d]pyrimidin-4-yl)pyridin-2-ylmethylamine] | 76 | 
14 | c1ccc(-c2csc3nc(CN4CCOCC4)nc(NCc4ccccn4)c23)cc1 [Example 303, (2-Morpholin-4-ylmethyl-5-phenyl-thieno[2,3-d]pyrimidin-4-yl)-pyridin-2-ylmethyl-amine] | 63 | 
15 | CNCc1nc(NCc2ccccn2)c2c(-c3ccccc3)csc2n1 [Example 304, (2-Methylaminomethyl-5-phenyl-thieno[2,3-d]pyrimidin-4-yl)-pyridin-2-ylmethyl-amine] | 58 | 
16 | COCc1nc(NCc2ccccn2)c2c(-c3ccccc3)csc2n1 [Example 305, (2-Methoxymethyl-5-phenylthien[2,3-d]primidin-4-yl)pyridin-2-ylmethylamine] | 94 | 
17 | CN(C)c1ccc(-c2csc3ncnc(NCc4ccccn4)c23)cc1 [Example 315, [5-(4-Dimethylamino-phenyl)-thieno[2,3-d]pyrimidin-4-yl]-pyridin-2-ylmethyl-amine] | 98 | 
18 | Cc1ccc(-c2csc3ncnc(NCc4ccccn4)c23)cc1C [Example 316, [5-(3,4-Dimethyl-phenyl)-thieno[2,3-d]pyrimidin-4-yl]-pyridin-2-ylmethyl-amine] | 98 | 
19 | FC(F)(F)Oc1ccc(-c2csc3ncnc(NCc4ccccn4)c23)cc1 [Example 317, Pyridin-2-ylmethyl-[5-(4-trifluoromethoxy-phenyl)-thieno[2,3-d]pyrimidin-4-yl]-amine] | 98 | 
20 | Cc1ccc(-c2csc3ncnc(NCc4ccccn4)c23)cc1 [Example 318, Pyridin-2-ylmethyl-(5-p-tolyl-thieno[2,3-d]pyrimidin-4-yl)-amine] | 98 | 
21 | c1ccc(CNc2ncnc3scc(-c4ccc5c(c4)OCO5)c23)nc1 [Example 319, (5-Benzo[1,3]dioxol-5-yl-thieno[2,3-d]pyrimidin-4-yl)-pyridin-2-ylmethyl-amine] |  | 97.3
22 | COCOc1ccc(-c2csc3ncnc(NCc4ccccn4)c23)cc1 [Example 324, [5-(4-Methoxymethoxy-phenyl)-thieno[2,3-d]pyrimidin-4-yl]-pyridin-2-ylmethyl-amine] | 93 | 
23 | COC(=O)c1ccc(-c2csc3ncnc(NCc4ccccn4)c23)cc1 [Example 327, 4-{4-[(Pyridin-2-ylmethyl)-amino]-thieno[2,3-d]pyrimidin-5-yl}-benzoic acid methyl ester] | 83 | 
24 | COc1ccc(-c2csc3ncnc(NCc4ccccn4)c23)cn1 [Example 328, [5-(6-Methoxy-pyridin-3-yl)-thieno[2,3-d]pyrimidin-4-yl]-pyridin-2-ylmethyl-amine] | 83 | 
25 | Clc1ccc(-c2csc3ncnc(NCc4ccccn4)c23)c(Cl)c1 [Example 329, [5-(2,4-Dichloro-phenyl)-thieno[2,3-d]pyrimidin-4-yl]-pyridin-2-ylmethyl-amine] | 81 | 
26 | FC(F)(F)c1cc(-c2csc3ncnc(NCc4ccccn4)c23)ccc1Cl [Example 330, [5-(4-Chloro-3-trifluoromethyl-phenyl)-thieno[2,3-d]pyrimidin-4-yl]-pyridin-2-ylmethyl-amine] | 79 | 
